# Test results published in patent publication US20040106626A1, “6-Membered unsaturated heterocyclic compounds useful for selective inhibition of the coagulation cascade” (Pharmacia Corporation, priority 2001, published 2004).
# How the values were obtained:
# Assay type in all cases: biochemical
# [1] = target: T1, Human factor Xa (Homo sapiens, UniProt P00742); experiment: Xa assay (chromogenic substrate S-2765); conditions: reported only as less than or greater than 30 uM; read-out: Factor Xa (II) IC50
# T1 construct: purchased Enzyme Research Laboratories, South Bend Ind
# In short: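 Human factor Xa (0.3 nM) was incubated with inhibitor and 0.15 mM S-2765 in 50 mM Tris-HCl pH 8.0, 100 mM NaCl, 0.1% BSA. After 60 min at RT, p-nitroaniline release was read at 405 nm after background subtraction. Percent inhibition was calculated against uninhibited control.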
# [2] = tested on: Normal human pooled plasma; experiment: Prothrombin time (PT) clotting assay; conditions: concentration at which prothrombin time is prolonged by 2x normal, reported as less than or greater than 50 uM
# Experimental: The prothrombin time (PT) assay is a clotting assay that is used to determine deficiencies of clotting factor activity in the extrinsic pathway. The assay measures time to clotting after the addition of thromboplastin (human tissue factor). Normal human pooled plasma is incubated with 100 uM compound or saline in a coagulation machine. Thromboplastin is added and time to clotting is measured. Compounds with greater than 3×normal PT of 11.0 seconds are further analyzed by concentration response to determine at what concentration the prothrombin time is prolonged by 2×normal.
# [3] = target: T2, Human thrombin (Homo sapiens, UniProt P00734); experiment: Thrombin assay (chromogenic substrate); conditions: reported only as less than or greater than 30 uM; read-out: Thrombin (II) IC50
# T2 construct: converts prothrombin (II) to thrombin (IIa); purchased Calbiochem, La Jolla, Calif
# In short: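 Chromogenic assay with p-nitroaniline-releasing substrate; thrombin activity read as OD405 nm. Percent inhibition calculated from experimental versus control absorbance.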
# [4] = target: T3, recombinant soluble tissue factor and recombinant human factor VIIa (TF-VIIa) (Homo sapiens, UniProt P08709); experiment: TF-VIIa assay (chromogenic substrate hydrolysis); conditions: reported only as less than or greater than 0.1 uM
# T3 construct: conversion of coagulation factor VII to VIIa by factor Xa; purchased American Diagnostica, Greenwich CT; host or cells: soluble TF made in house in E. coli
# In short: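 100 nM soluble tissue factor and 2 nM recombinant human factor VIIa added to 0.4 mM N-methylsulfonyl-D-phe-gly-arg-p-nitroaniline with inhibitor in 50 mM Tris-HCl pH 8.0, 5 mM CaCl2, 100 mM NaCl, 0.1% BSA. Percent inhibition from OD405 versus control.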
# T3 sequence (P08709 213-466 limits assumed): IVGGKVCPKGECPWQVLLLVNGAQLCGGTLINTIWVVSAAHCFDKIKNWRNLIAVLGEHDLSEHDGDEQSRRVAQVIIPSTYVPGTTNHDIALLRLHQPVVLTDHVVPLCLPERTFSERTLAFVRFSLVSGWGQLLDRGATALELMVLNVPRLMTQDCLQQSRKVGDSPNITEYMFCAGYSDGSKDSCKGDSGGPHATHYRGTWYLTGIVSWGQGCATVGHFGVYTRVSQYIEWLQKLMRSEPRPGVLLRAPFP
# T3 sequence (P08709 61-212 limits assumed): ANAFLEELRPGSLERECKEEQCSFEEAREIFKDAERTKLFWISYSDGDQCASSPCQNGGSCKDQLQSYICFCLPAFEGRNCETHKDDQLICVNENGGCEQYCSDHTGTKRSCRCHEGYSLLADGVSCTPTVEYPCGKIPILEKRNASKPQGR
# T3 sequence (P13726 33-251 partner limits assumed): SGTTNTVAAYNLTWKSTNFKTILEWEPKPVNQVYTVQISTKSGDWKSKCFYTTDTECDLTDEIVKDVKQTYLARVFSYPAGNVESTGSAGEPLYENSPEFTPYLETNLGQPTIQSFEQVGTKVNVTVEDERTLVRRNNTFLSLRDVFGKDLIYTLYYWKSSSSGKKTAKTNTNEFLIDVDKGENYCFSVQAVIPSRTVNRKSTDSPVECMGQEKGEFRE
# T1 sequence (P00742 235-488 limits assumed): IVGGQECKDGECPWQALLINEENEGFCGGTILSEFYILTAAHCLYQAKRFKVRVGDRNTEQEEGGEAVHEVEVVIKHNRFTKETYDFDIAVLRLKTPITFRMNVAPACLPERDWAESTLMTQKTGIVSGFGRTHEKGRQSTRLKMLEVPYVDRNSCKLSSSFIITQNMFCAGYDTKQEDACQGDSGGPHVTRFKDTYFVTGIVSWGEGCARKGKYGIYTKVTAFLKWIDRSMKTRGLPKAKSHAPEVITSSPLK
# T1 sequence (P00742 41-179 limits assumed): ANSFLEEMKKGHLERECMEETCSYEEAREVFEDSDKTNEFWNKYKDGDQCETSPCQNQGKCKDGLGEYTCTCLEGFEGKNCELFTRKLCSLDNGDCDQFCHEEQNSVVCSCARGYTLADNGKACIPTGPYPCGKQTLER
IC50 [1],IC50 [3],IC50 [4],Structure (SMILES),PT (Prothrombin time) 2xPT [2]
> 30 µM,> 30 µM,< 0.1 µM,CCNC(=O)c1cc(N)cc(-c2cnc(NC(C)C)c(=O)n2CC(=O)NCc2ccc(C(=N)N)cc2)c1 [Example 63],<50.0 µM
> 30 µM,> 30 µM,> 0.1 µM,CC(C)Nc1ncc(-c2cc(N)cc(C(F)(F)F)c2)n(CC(=O)NCc2c(F)c(O)c(C(=N)N)c(F)c2F)c1=O [Example 65],>50.0 µM
> 30 µM,> 30 µM,< 0.1 µM,"CC(C)Nc1ncc(-c2cc(N)cc(S(=O)(=O)O)c2)n(CC(=O)NCc2ccc(C(=N)N)cc2)c1=O [Example 66, 3-Amino-5-[1-[2-({4-[amino(imino)methyl]benzyl}amino)-2-oxoethyl]-5-(isopropylamino)-6-oxo-1,6-dihydropyrazin-2-yl]benzenesulfonic Acid]",<50.0 µM
< 30 µM,> 30 µM,< 0.1 µM,CC(C)Nc1ncc(-c2cc(N)cc(C(F)(F)F)c2)n(CC(=O)NCc2ccc(C(=N)N)s2)c1=O [Example 67],<50.0 µM
< 30 µM,> 30 µM,< 0.1 µM,CC(C)Nc1ncc(-c2cc(N)cc(N)c2)n(CC(=O)NCc2ccc(C(=N)N)s2)c1=O [Example 68],<50.0 µM
> 30 µM,> 30 µM,< 0.1 µM,"CC(C)CSc1cc(N)cc(-c2cnc(NC(C)C)c(=O)n2CC(=O)NCc2ccc(C(=N)N)cc2)c1 [Example 70, N-{4-[amino(imino)methyl]benzyl}-2-[6-[3-amino-5-(isobutylthio)phenyl]-3-(isopropylamino)-2-oxopyrazin-1 (2H)-yl]acetamide]",<50.0 µM
> 30 µM,< 30 µM,< 0.1 µM,CC[C@@H](C)NC(=O)c1cc(N)cc(-c2cnc(NC(C)C)c(=O)n2CC(=O)NCc2ccc(C(=N)N)cc2)c1 [Example 72],<50.0 µM
> 30 µM,> 30 µM,< 0.1 µM,"CC(C)C[S+]([O-])c1cc(N)cc(-c2cnc(NC(C)C)c(=O)n2CC(=O)NCc2ccc(C(=N)N)cc2)c1 (centres unmarked) [Example 73, N-{4-[amino(imino)methyl]benzyl}-2-[6-[3-amino-5-(isobutylsulfinyl)phenyl]-3-(isopropylamino)-2-oxopyrazin-1 (2H)-yl]acetamide]",<50.0 µM
> 30 µM,> 30 µM,< 0.1 µM,"CC(C)CS(=O)(=O)c1cc(N)cc(-c2cnc(NC(C)C)c(=O)n2CC(=O)NCc2ccc(C(=N)N)cc2)c1 [Example 74, N-{4-[amino(imino)methyl]benzyl}-2-[6-[3-amino-5-(isobutylsulfonyl)phenyl]-3-(isopropylamino)-2-oxopyrazin-1 (2H)-yl]acetamide]",<50.0 µM
> 30 µM,> 30 µM,< 0.1 µM,"CC(C)Nc1ncc(-c2cc(N)cc(CCCc3ccccc3)c2)n(CC(=O)NCc2ccc(C(=N)N)cc2)c1=O [Example 76, N-{4-[amino(imino)methyl]benzyl}-2-[6-[3-amino-5-(3-phenylpropyl)phenyl]-3-(isopropylamino)-2-oxopyrazin-1 (2H)-yl]acetamide]",<50.0 µM
> 30 µM,> 30 µM,> 0.1 µM,COC(=O)c1cc(N)cc(-c2cnc(NC(C)C)c(=O)n2CC(=O)NCc2ccc(C(=N)N)c(O)c2)c1 [Example 77],<50.0 µM
> 30 µM,> 30 µM,> 0.1 µM,CC(C)Nc1ncc(-c2cc(N)cc(NC(=O)OC(C)(C)C)c2)n(CC(=O)NCc2ccc(C(=N)N)c(O)c2)c1=O [Example 78],<50.0 µM
> 30 µM,> 30 µM,> 0.1 µM,CC(C)Nc1ncc(-c2cc(N)cc(N)c2)n(CC(=O)NCc2ccc(C(=N)N)c(O)c2)c1=O [Example 79],<50.0 µM
> 30 µM,> 30 µM,< 0.1 µM,"CC(C)Nc1ncc(-c2cc(N)cc(/C=C/Cc3ccccc3)c2)n(CC(=O)NCc2ccc(C(=N)N)cc2)c1=O [Example 80, N-{4-[amino(imino)methyl]benzyl}-2-[6-{3-amino-5-[(1E)-3-phenylprop-1-enyl]phenyl}-3-(isopropylamino)-2-oxopyrazin-1 (2H)-yl]acetamide]",>50.0 µM
> 30 µM,> 30 µM,< 0.1 µM,CC(C)Nc1ncc(-c2cc(N)cc(C(=O)N[C@@H](C(=O)O)c3ccccc3)c2)n(CC(=O)NCc2ccc(C(=N)N)cc2)c1=O [Example 83],<50.0 µM
> 30 µM,> 30 µM,< 0.1 µM,CC(C)Nc1ncc(-c2cc(N)cc(C(=O)N[C@H](C(=O)O)c3ccccc3)c2)n(CC(=O)NCc2ccc(C(=N)N)cc2)c1=O [Example 84],<50.0 µM
> 30 µM,> 30 µM,< 0.1 µM,CCC(C)[C@H](NC(=O)c1cc(N)cc(-c2cnc(NC(C)C)c(=O)n2CC(=O)NCc2ccc(C(=N)N)cc2)c1)C(=O)O (some centres unmarked) [Example 85],<50.0 µM
> 30 µM,< 30 µM,< 0.1 µM,COC(=O)[C@H](NC(=O)c1cc(N)cc(-c2cnc(NC(C)C)c(=O)n2CC(=O)NCc2ccc(C(=N)N)cc2)c1)c1ccccc1 [Example 86],<50.0 µM
> 30 µM,< 30 µM,< 0.1 µM,COC(=O)[C@@H](NC(=O)c1cc(N)cc(-c2cnc(NC(C)C)c(=O)n2CC(=O)NCc2ccc(C(=N)N)cc2)c1)c1ccccc1 [Example 87],<50.0 µM
> 30 µM,> 30 µM,> 0.1 µM,CC(C)Nc1ncc(-c2cc(N)cc(NS(=O)(=O)c3ccc(OC(F)(F)F)cc3)c2)n(CC(=O)NCc2ccc(C(=N)N)cc2)c1=O [Example 88],<50.0 µM
> 30 µM,> 30 µM,< 0.1 µM,CC(C)Nc1ncc(-c2cc(N)cc(NS(=O)(=O)c3ccccc3C(F)(F)F)c2)n(CC(=O)NCc2ccc(C(=N)N)cc2)c1=O [Example 89],<50.0 µM
> 30 µM,> 30 µM,< 0.1 µM,CC(C)Nc1ncc(-c2cc(N)cc(NS(=O)(=O)c3ccc4ccccc4c3)c2)n(CC(=O)NCc2ccc(C(=N)N)cc2)c1=O [Example 90],<50.0 µM
> 30 µM,> 30 µM,< 0.1 µM,CC(C)Nc1ncc(-c2cc(N)cc(NS(=O)(=O)c3cccs3)c2)n(CC(=O)NCc2ccc(C(=N)N)cc2)c1=O [Example 91],<50.0 µM
> 30 µM,> 30 µM,< 0.1 µM,COc1ccc(S(=O)(=O)Nc2cc(N)cc(-c3cnc(NC(C)C)c(=O)n3CC(=O)NCc3ccc(C(=N)N)cc3)c2)cc1 [Example 92],<50.0 µM
> 30 µM,> 30 µM,< 0.1 µM,CC(C)Nc1ncc(-c2cc(N)cc(NS(=O)(=O)c3ccc(F)cc3)c2)n(CC(=O)NCc2ccc(C(=N)N)cc2)c1=O [Example 93],<50.0 µM
> 30 µM,> 30 µM,< 0.1 µM,CC(C)Nc1ncc(-c2cc(N)cc(NS(=O)(=O)c3ccc(F)cc3F)c2)n(CC(=O)NCc2ccc(C(=N)N)cc2)c1=O [Example 94],<50.0 µM

Structure (SMILES),IC50 [1],IC50 [3],IC50 [4],PT (Prothrombin time) 2xPT [2]
"CC(C)COc1cc(N)cc(-c2cnc(NC(C)C)c(=O)n2CC(=O)NCc2ccc(C(=N)N)cc2)c1 [Example 64, N-{4-[amino(imino)methyl]benzyl}-2-[6-(3-amino-5-isobutoxyphenyl)-3-(isopropylamino)-2-oxopyrazin-1 (2H)-yl]acetamide]",> 30 µM,> 30 µM,< 0.1 µM,<50.0 µM
CC(C)Nc1ncc(-c2cc(N)cc(C(=O)N[C@H](C)C3CCCCC3)c2)n(CC(=O)NCc2ccc(C(=N)N)cc2)c1=O.O=C(O)C(F)(F)F [Example 81],> 30 µM,< 30 µM,< 0.1 µM,<50.0 µM
CC(C)Nc1ncc(-c2cc(N)cc(C(=O)N[C@@H](C)C3CCCCC3)c2)n(CC(=O)NCc2ccc(C(=N)N)cc2)c1=O.O=C(O)C(F)(F)F [Example 82],> 30 µM,< 30 µM,< 0.1 µM,<50.0 µM
